{"source": "patent US20160185774A1", "about": "“Anti-Infective Compounds” (priority 2013, published 2016)", "data": [{"tested_on": "M. tuberculosis", "test": "microbe, parasite or virus in culture", "type": "cell-based", "conditions": "Mycobacterium tuberculosis, 120 h; read-out: QUM (MIC80)", "units": {"MIC80": "µM"}, "values": [{"smiles": "CCc1nc2cc(F)ccn2c1C(=O)NCc1ccc(N2CCC(c3ccc(C(F)(F)F)cc3)CC2)cc1", "note": "[Compound 164]", "MIC80": "< 1"}, {"smiles": "CCc1nc2ccccn2c1C(=O)NCc1ccc(N2CCN(c3ccc(C)cc3)CC2)cc1", "note": "[Compound 28]", "MIC80": "< 1"}, {"smiles": "CCc1nc2cc(C)ccn2c1C(=O)NCc1ccc(N2CCC(c3ccc(OC)cc3)CC2)cc1", "note": "[Compound 155]", "MIC80": "< 1"}, {"smiles": "CCc1nc2ccc(Br)cn2c1C(=O)NCc1ccc(N2CCN(c3ccc(OC(F)(F)F)cc3)CC2)cc1", "note": "[Compound 197]", "MIC80": "< 1"}, {"smiles": "CCc1nc2c(OC)cccn2c1C(=O)NCc1ccc(N2CCN(c3ccc(C)cc3)CC2)cc1", "note": "[Compound 104]", "MIC80": "1 to 20"}, {"smiles": "CCc1nc2ccc(Cl)cn2c1C(=O)NCc1ccc(N2CCC(NC(=O)Cc3ccc(F)cc3)CC2)cc1", "note": "[Compound 232]", "MIC80": "> 20"}, {"smiles": "Cc1nc2ccc(Cl)cn2c1C(=O)NCc1ccc(N2CCC(c3ccc(C(F)(F)F)cc3)CC2)cc1", "note": "[Compound 327]", "MIC80": "< 1"}, {"smiles": "Cc1nc2c(F)cccn2c1C(=O)NCc1ccc(N2CCC(c3ccc(F)cc3)CC2)cc1", "note": "[Compound 311]", "MIC80": "< 1"}, {"smiles": "Cc1ccc(C2CCN(c3ccc(CNC(=O)c4c(C)nc5cc(Cl)ccn45)cc3)CC2)cc1", "note": "[Compound 299]", "MIC80": "< 1"}, {"smiles": "CCc1nc2c(OC)cccn2c1C(=O)NCc1ccc(N2CCN(c3ccc(OC(F)(F)F)cc3)CC2)cc1", "note": "[Compound 200]", "MIC80": "1 to 20"}, {"smiles": "CCc1nc2cc(F)ccn2c1C(=O)NCc1ccc(N2CCN(c3ccc(C(F)(F)F)cc3)CC2)cc1", "note": "[Compound 229]", "MIC80": "< 1"}, {"smiles": "CCc1nc2c(F)cccn2c1C(=O)NCc1ccc(N2CCC(c3ccccc3)CC2)cc1", "note": "[Compound 167]", "MIC80": "< 1"}, {"smiles": "CCc1nc2cc(Cl)ccn2c1C(=O)NCc1ccc(N2CCN(c3ccc(C)cc3)CC2)cc1", "note": "[Compound 35]", "MIC80": "< 1"}, {"smiles": "CCc1nc2c(C)cccn2c1C(=O)NCc1ccc(N2CCN(c3ccc(C)cc3)CC2)cc1", "note": "[Compound 39]", "MIC80": "< 1"}, {"smiles": "CCc1nc2cc(C)ccn2c1C(=O)NCc1ccc(N2CCC(c3ccc(Cl)cc3)CC2)cc1", "note": "[Compound 52]", "MIC80": "< 1"}, {"smiles": "CCc1nc2c(Br)cccn2c1C(=O)NCc1ccc(N2CCN(c3ccc(C(F)(F)F)cc3)CC2)cc1", "note": "[Compound 218]", "MIC80": "< 1"}, {"smiles": "CCc1nc2cc(Cl)ccn2c1C(=O)NCc1ccc(N2CCN(c3ccc(OC)cc3)CC2)cc1", "note": "[Compound 46]", "MIC80": "< 1"}, {"smiles": "CCc1nc2cc(Cl)ccn2c1C(=O)NCc1ccc(N2CCC(c3ccc(C(F)(F)F)cc3)CC2)cc1", "note": "[Compound 13]", "MIC80": "< 1"}, {"smiles": "CCc1nc2ccc(Cl)cn2c1C(=O)NCc1ccc(NC2C3CC4CC(C3)CC2C4)cc1", "note": "(stereo not drawn) [Compound 323]", "MIC80": "< 1"}, {"smiles": "CCc1nc2cc(C(F)(F)F)ccn2c1C(=O)NCc1ccc(N2CCN(c3ccc(Cl)cc3)CC2)cc1", "note": "[Compound 211]", "MIC80": "< 1"}, {"smiles": "CCc1nc2ccc(F)cn2c1C(=O)NCc1ccc(N2CCC(c3ccccc3)CC2)cc1", "note": "[Compound 165]", "MIC80": "< 1"}, {"smiles": "CCc1nc2c(Cl)cccn2c1C(=O)NCc1ccc(N2CCC(c3ccc(F)cc3)CC2)cc1", "note": "[Compound 183]", "MIC80": "< 1"}, {"smiles": "CCc1nc2ccc(Cl)cn2c1C(=O)NCc1ccc2ncn(Cc3ccc(OC(F)(F)F)cc3)c2c1", "note": "[Compound 274]", "MIC80": "1 to 20"}, {"smiles": "CCc1nc2c(C)cccn2c1C(=O)NCc1ccc(N2CCN(c3ccc(F)cc3)CC2)cc1", "note": "[Compound 83]", "MIC80": "< 1"}, {"smiles": "CCc1nc2ccc(Cl)cn2c1C(=O)NCc1ccc(C2CCN(C(=O)c3ccc(F)cc3)CC2)cc1", "note": "[Compound 243]", "MIC80": "< 1"}, {"smiles": "CCc1nc2ccc(Cl)cn2c1C(=O)NCc1ccc(N2CCC(C(=O)Cc3ccc(F)cc3)CC2)cc1", "note": "[Compound 242]", "MIC80": "< 1"}, {"smiles": "Cc1nc2cc(F)ccn2c1C(=O)NCc1ccc(N2CCC(c3ccc(OC(F)(F)F)cc3)CC2)cc1", "note": "[Compound 350]", "MIC80": "< 1"}, {"smiles": "CCc1nc2c(F)cccn2c1C(=O)NCc1cccc(N2CCOCC2)c1", "note": "[Compound 281]", "MIC80": "1 to 20"}, {"smiles": "CCc1nc2cc(Cl)ccn2c1C(=O)NCc1ccc(N2CCC(c3ccc(C)cc3)CC2)cc1", "note": "[Compound 221]", "MIC80": "< 1"}, {"smiles": "CCc1nc2c(Cl)cccn2c1C(=O)NCc1ccc(N2CCC(c3ccc(OC(F)(F)F)cc3)CC2)cc1", "note": "[Compound 224]", "MIC80": "< 1"}, {"smiles": "CCc1nc2ccc(OC)cn2c1C(=O)NCc1ccc(N2CCN(c3ccc(C(F)(F)F)cc3)CC2)cc1", "note": "[Compound 210]", "MIC80": "< 1"}, {"smiles": "CCc1nc2ccc(C(F)(F)F)cn2c1C(=O)NCc1ccc(N2CCN(c3ccccc3)CC2)cc1", "note": "[Compound 80]", "MIC80": "< 1"}, {"smiles": "CCc1nc2ccc(Cl)cn2c1C(=O)NCc1ccc(N2CCC(C(=O)c3ccc(OC(F)(F)F)cc3)CC2)cc1", "note": "[Compound 241]", "MIC80": "< 1"}, {"smiles": "CCc1nc2ccccn2c1C(=O)NCc1ccc(N2CCN(c3ccc(OC)cc3)CC2)cc1", "note": "[Compound 30]", "MIC80": "< 1"}, {"smiles": "CCc1nc2c(F)cccn2c1C(=O)NCc1ccc(N2CCN(c3ccc(OC(F)(F)F)cc3)CC2)cc1", "note": "[Compound 193]", "MIC80": "< 1"}, {"smiles": "CCc1nc2ccc(Cl)cn2c1C(=O)NCc1ccc2oc(CN3CCOCC3)nc2c1", "note": "[Compound 331]", "MIC80": "1 to 20"}, {"smiles": "CCc1nc2ccc(OC)cn2c1C(=O)NCc1ccc(N2CCC(c3ccc(C)cc3)CC2)cc1", "note": "[Compound 127]", "MIC80": "< 1"}, {"smiles": "CCc1nc2ccc(C)cn2c1C(=O)NCc1ccc(N2CCN(c3ccc(OC(F)(F)F)cc3)CC2)cc1", "note": "[Compound 55]", "MIC80": "< 1"}, {"smiles": "CCc1nc2cc(Cl)ccn2c1C(=O)NCc1ccc(NC2C3CC4CC(C3)CC2C4)cc1", "note": "(stereo not drawn) [Compound 324]", "MIC80": "< 1"}, {"smiles": "CCc1nc2c(OC)cccn2c1C(=O)NCc1ccc(N2CCC(c3ccc(OC(F)(F)F)cc3)CC2)cc1", "note": "[Compound 117]", "MIC80": "1 to 20"}, {"smiles": "CCc1nc2cc(OC)ccn2c1C(=O)NCc1ccc(N2CCC(c3ccc(C)cc3)CC2)cc1", "note": "[Compound 23]", "MIC80": "< 1"}, {"smiles": "CCc1nc2cc(C)ccn2c1C(=O)NCc1ccc(N2CCC(c3ccc(F)cc3)CC2)cc1", "note": "[Compound 163]", "MIC80": "< 1"}, {"smiles": "CCc1nc2cc(OC)ccn2c1C(=O)NCc1ccc(N2CCN(c3ccc(C(F)(F)F)cc3)CC2)cc1", "note": "[Compound 57]", "MIC80": "< 1"}, {"smiles": "CCc1nc2ccc(Br)cn2c1C(=O)NCc1ccc(N2CCC(c3ccc(F)cc3)CC2)cc1", "note": "[Compound 72]", "MIC80": "< 1"}, {"smiles": "CCc1nc2c(C)cccn2c1C(=O)NCc1ccc(N2CCN(c3ccc(OC)cc3)CC2)cc1", "note": "[Compound 38]", "MIC80": "< 1"}, {"smiles": "CCc1nc2ccc(C)cn2c1C(=O)NCc1ccc(N2CCC(c3ccc(C(F)(F)F)cc3)CC2)cc1", "note": "[Compound 140]", "MIC80": "< 1"}, {"smiles": "CCc1nc2cc(Cl)ccn2c1C(=O)NCc1cccc(C(=O)NCc2ccc(F)cc2)c1", "note": "[Compound 329]", "MIC80": "1 to 20"}, {"smiles": "CCc1nc2ccc(C)cn2c1C(=O)NCc1ccc(N2CCC(c3ccc(OC(F)(F)F)cc3)CC2)cc1", "note": "[Compound 174]", "MIC80": "< 1"}, {"smiles": "CCc1nc2ccc(Cl)cn2c1C(=O)NCc1ccc(N2CCN(c3ccc(C(F)(F)F)cc3)CC2)cc1", "note": "[Compound 48]", "MIC80": "< 1"}, {"smiles": "CCc1nc2c(F)cccn2c1C(=O)NCc1ccc(N2CCN(c3ccccc3)CC2)cc1", "note": "[Compound 70]", "MIC80": "< 1"}, {"smiles": "CCc1nc2cc(Cl)ccn2c1C(=O)NCc1ccc2oc(CN3CCOCC3)nc2c1", "note": "[Compound 332]", "MIC80": "1 to 20"}, {"smiles": "CCc1nc2c(Cl)cccn2c1C(=O)NCc1ccc(N2CCC(c3ccc(C(F)(F)F)cc3)CC2)cc1", "note": "[Compound 119]", "MIC80": "< 1"}, {"smiles": "Cc1nc2ccc(F)cn2c1C(=O)NCc1ccc(N2CCC(c3ccc(F)cc3)CC2)cc1", "note": "[Compound 313]", "MIC80": "< 1"}, {"smiles": "CCc1nc2c(Br)cccn2c1C(=O)NCc1ccc(N2CCC(c3ccc(F)cc3)CC2)cc1", "note": "[Compound 189]", "MIC80": "1 to 20"}, {"smiles": "CCc1nc2ccc(Cl)cn2c1C(=O)NCc1ccc(/C=C/c2ccc(F)cc2)cc1", "note": "[Compound 246]", "MIC80": "< 1"}, {"smiles": "CCc1nc2ccc(Cl)cn2c1C(=O)NCc1ccc(N2CCC(O)(c3ccccc3)CC2)cc1", "note": "[Compound 239]", "MIC80": "< 1"}, {"smiles": "CCc1nc2cc(C(F)(F)F)ccn2c1C(=O)NCc1ccc(N2CCC(c3ccc(OC(F)(F)F)cc3)CC2)cc1", "note": "[Compound 228]", "MIC80": "< 1"}, {"smiles": "CCc1nc2cc(Cl)ccn2c1C(=O)NCc1ccc(C(=O)N(C)c2ccc(F)cc2)cc1", "note": "[Compound 306]", "MIC80": "1 to 20"}, {"smiles": "CCc1nc2c(Cl)cccn2c1C(=O)NCc1ccc(N2CCN(c3ccc(F)cc3)CC2)cc1", "note": "[Compound 85]", "MIC80": "< 1"}, {"smiles": "CCc1nc2cc(C)ccn2c1C(=O)NCc1ccc(N2CCN(c3ccc(Cl)cc3)CC2)cc1", "note": "[Compound 59]", "MIC80": "< 1"}, {"smiles": "CCc1nc2cc(F)ccn2c1C(=O)NCc1ccc(N2CCN(c3ccc(Cl)cc3)CC2)cc1", "note": "[Compound 90]", "MIC80": "< 1"}, {"smiles": "CCc1nc2cc(Br)ccn2c1C(=O)NCc1ccc(N2CCC(c3ccc(C)cc3)CC2)cc1", "note": "[Compound 219]", "MIC80": "< 1"}, {"smiles": "CCc1nc2cc(F)ccn2c1C(=O)NCc1ccc(N2CCN(c3ccc(OC(F)(F)F)cc3)CC2)cc1", "note": "[Compound 116]", "MIC80": "< 1"}, {"smiles": "CCc1nc2ccc(C)cn2c1C(=O)NCc1ccc(N2CCN(c3ccccc3)CC2)cc1", "note": "[Compound 9]", "MIC80": "< 1"}, {"smiles": "CCc1nc2cc(F)ccn2c1C(=O)NCc1ccc(N2CCC(c3ccc(C)cc3)CC2)cc1", "note": "[Compound 5]", "MIC80": "< 1"}, {"smiles": "CCc1nc2c(C(F)(F)F)cccn2c1C(=O)NCc1ccc(N2CCC(c3ccc(C(F)(F)F)cc3)CC2)cc1", "note": "[Compound 88]", "MIC80": "1 to 20"}, {"smiles": "CCc1nc2c(C(F)(F)F)cccn2c1C(=O)NCc1ccc(N2CCC(c3ccccc3)CC2)cc1", "note": "[Compound 112]", "MIC80": "1 to 20"}, {"smiles": "CCc1nc2cc(Br)ccn2c1C(=O)NCc1ccc(N2CCC(c3ccccc3)CC2)cc1", "note": "[Compound 113]", "MIC80": "< 1"}, {"smiles": "CCc1nc2c(Br)cccn2c1C(=O)NCc1ccc(N2CCC(c3ccc(OC)cc3)CC2)cc1", "note": "[Compound 89]", "MIC80": "1 to 20"}, {"smiles": "CCc1nc2c(C)cccn2c1C(=O)NCc1ccc(N2CCN(c3ccc(Cl)cc3)CC2)cc1", "note": "[Compound 43]", "MIC80": "< 1"}, {"smiles": "CCc1nc2c(C(F)(F)F)cccn2c1C(=O)NCc1ccc(N2CCC(c3ccc(OC)cc3)CC2)cc1", "note": "[Compound 27]", "MIC80": "1 to 20"}, {"smiles": "CCc1nc2cc(Br)ccn2c1C(=O)NCc1ccc(N2CCN(c3ccc(OC(F)(F)F)cc3)CC2)cc1", "note": "[Compound 192]", "MIC80": "< 1"}, {"smiles": "CCc1nc2ccc(C)cn2c1C(=O)NCc1ccc(N2CCN(c3ccc(C(F)(F)F)cc3)CC2)cc1", "note": "[Compound 60]", "MIC80": "< 1"}, {"smiles": "CCc1nc2c(C(F)(F)F)cccn2c1C(=O)NCc1ccc(N2CCN(c3ccccc3)CC2)cc1", "note": "[Compound 84]", "MIC80": "1 to 20"}, {"smiles": "CCc1nc2c(OC)cccn2c1C(=O)NCc1ccc(N2CCN(c3ccc(C(F)(F)F)cc3)CC2)cc1", "note": "[Compound 129]", "MIC80": "1 to 20"}]}]}
